# Measurements published in ChEMBL document CHEMBL1201862, “PubChem BioAssay data set” (2004).
# Activity calls are given as the source filed them.
# Key:
# [1] = system: Streptococcus sp. 'group A'; assay: growth inhibition of control SK(-) GAS strain, dose response, counter-screen for streptokinase expression inhibitor project, luminescence, kanamycin, BacTiterGlo, confirmation (AID 1900); assay type: functional, organism-based
# Streptokinase A = target: T1, Streptokinase A (Streptococcus pyogenes serotype M1, UniProt P10520); assay: S. pyogenes streptokinase expression inhibitors, potency, dose response, plasminogen activation absorbance, OD405 (AID 1914); assay type: functional, Streptococcus pyogenes M1 GAS;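 further: secreted streptokinase activity via plasminogen activation per viability signal from cell pellet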
# T1 sequence (P10520 whole entry): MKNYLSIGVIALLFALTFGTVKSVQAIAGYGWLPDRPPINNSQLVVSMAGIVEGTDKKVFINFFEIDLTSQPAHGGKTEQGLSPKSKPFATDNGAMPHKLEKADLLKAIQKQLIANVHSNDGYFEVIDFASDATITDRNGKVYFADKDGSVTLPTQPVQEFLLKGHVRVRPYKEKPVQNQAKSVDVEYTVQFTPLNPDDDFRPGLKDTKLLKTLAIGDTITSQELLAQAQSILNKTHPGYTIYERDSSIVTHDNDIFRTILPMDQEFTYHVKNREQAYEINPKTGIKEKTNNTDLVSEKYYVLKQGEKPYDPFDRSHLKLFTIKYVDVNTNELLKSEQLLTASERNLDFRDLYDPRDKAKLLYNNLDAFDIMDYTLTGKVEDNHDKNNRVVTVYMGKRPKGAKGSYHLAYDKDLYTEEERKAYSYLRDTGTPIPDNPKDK
# Streptococcus = assay: Group A Streptococcus viability loss, dose response, counter-screen for streptokinase expression inhibitor project, luminescence, BacTiterGlo (AID 1915); assay type: functional, organism-based;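 further: potency for reduction of bacterial viability or growth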
# [2] = target: T2, Replicative DNA helicase DnaB (Mycobacterium tuberculosis, UniProt P9WMR3); assay: DnaB intein splicing inhibitors, dose response, biochemical, cell-free fluorescence (AID 449749); assay type: functional
# T2 sequence (P9WMR3 whole entry): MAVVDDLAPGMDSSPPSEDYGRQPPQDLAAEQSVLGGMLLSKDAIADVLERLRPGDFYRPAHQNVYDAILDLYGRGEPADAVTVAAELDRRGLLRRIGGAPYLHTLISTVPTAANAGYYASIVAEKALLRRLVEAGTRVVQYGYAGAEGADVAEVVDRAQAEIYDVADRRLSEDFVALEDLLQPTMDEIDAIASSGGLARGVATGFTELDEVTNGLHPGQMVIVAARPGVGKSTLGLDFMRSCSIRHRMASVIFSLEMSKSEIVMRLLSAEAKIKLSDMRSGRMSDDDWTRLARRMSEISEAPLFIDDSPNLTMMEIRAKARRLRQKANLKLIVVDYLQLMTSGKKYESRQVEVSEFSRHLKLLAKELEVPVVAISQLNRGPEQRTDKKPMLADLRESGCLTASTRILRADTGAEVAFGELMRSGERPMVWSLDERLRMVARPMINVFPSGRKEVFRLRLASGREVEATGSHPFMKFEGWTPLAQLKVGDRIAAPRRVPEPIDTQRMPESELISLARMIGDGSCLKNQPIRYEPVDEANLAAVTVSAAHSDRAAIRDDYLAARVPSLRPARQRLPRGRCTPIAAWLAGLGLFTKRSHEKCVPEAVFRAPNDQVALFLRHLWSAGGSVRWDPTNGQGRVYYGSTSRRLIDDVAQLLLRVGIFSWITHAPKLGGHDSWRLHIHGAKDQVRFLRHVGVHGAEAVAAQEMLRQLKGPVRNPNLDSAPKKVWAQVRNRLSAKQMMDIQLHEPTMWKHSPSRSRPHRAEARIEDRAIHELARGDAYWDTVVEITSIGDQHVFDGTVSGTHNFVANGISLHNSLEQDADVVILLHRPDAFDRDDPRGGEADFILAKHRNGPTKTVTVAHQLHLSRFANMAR
# Protein RecA = target: T3, Protein RecA (Mycobacterium tuberculosis, UniProt P9WHJ3); assay: Fluorescence Cell-Free Homogeneous Dose Retest to Identify Inhibitors of RecA-Intein Splicing Activity. [Related pubchem assays (depositor defined):AID2097, AID2223, AID489010, AID492950]; assay type: functional
# T3 sequence (P9WHJ3 whole entry): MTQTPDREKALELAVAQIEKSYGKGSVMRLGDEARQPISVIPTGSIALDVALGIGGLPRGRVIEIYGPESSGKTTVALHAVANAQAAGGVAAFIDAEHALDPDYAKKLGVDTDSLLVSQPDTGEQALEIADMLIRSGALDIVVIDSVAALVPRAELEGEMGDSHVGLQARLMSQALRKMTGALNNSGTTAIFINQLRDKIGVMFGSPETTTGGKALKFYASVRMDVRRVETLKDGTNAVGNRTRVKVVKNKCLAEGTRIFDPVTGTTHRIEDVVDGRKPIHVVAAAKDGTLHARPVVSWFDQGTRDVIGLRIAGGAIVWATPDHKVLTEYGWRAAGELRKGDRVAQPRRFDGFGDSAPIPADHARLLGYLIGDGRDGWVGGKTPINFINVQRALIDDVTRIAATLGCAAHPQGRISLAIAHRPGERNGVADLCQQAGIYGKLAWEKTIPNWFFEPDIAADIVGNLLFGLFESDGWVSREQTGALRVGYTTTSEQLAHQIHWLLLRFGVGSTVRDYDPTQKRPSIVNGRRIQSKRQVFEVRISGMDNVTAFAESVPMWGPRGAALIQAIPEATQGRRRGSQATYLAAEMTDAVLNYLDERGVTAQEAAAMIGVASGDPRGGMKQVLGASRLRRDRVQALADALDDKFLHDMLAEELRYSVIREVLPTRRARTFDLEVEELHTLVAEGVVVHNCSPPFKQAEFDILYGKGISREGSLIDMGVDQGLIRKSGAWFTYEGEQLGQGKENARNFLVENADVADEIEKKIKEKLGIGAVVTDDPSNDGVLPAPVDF
# INS1 = assay: beta cell apoptosis inhibitors, cytokine rescue, dose response, luminescence, retest (AID 449756); assay type: functional, cell-based; settings: Rattus norvegicus;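 further: cell death triggered by IL-1 beta plus TNF-alpha plus IFN-gamma mixture; protective hits raise ATP signal compared with cytokine alone wells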
# [3] = target: E3 ubiquitin-protein ligase UHRF1 (Homo sapiens, UniProt Q96T88); assay: Counterscreen for inhibitors of 5-meCpG-binding domain protein 2 (MBD2): TRFRET-based biochemical high throughput dose response assay to identify inhibitors of binding of ubiquitin-like with PHD and ring finger domains 1 (UHRF1) to methylated oligonucleotide.
# Chain of E3 ubiquitin-protein ligase UHRF1 (Q96T88 whole entry, the tested form may be a part): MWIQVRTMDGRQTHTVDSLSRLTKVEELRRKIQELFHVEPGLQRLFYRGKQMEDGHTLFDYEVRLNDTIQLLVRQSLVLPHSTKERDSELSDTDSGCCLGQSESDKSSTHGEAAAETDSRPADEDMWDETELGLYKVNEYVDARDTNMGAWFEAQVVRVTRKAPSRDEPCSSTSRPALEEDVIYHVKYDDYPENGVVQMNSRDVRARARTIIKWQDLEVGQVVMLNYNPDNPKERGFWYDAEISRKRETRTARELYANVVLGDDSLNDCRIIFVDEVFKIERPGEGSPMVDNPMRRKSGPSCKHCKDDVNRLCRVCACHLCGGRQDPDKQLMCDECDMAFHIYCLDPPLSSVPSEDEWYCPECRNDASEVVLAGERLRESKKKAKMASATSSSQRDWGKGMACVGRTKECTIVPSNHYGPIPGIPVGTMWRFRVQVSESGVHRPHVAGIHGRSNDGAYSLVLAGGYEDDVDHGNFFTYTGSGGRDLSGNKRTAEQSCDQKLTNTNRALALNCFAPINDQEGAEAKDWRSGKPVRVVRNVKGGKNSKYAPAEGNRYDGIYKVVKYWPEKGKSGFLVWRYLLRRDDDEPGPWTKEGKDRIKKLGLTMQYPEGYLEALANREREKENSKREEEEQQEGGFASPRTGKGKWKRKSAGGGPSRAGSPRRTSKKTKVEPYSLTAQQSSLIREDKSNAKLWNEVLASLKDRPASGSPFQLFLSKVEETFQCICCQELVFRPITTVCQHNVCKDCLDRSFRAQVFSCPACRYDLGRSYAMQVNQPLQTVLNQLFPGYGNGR
# [4] = target: T4, Tyrosyl-DNA phosphodiesterase 2 (Homo sapiens, UniProt O95551); assay: human TDP2 enzyme inhibitors, dose response, biochemical, epi absorbance, IC50 (AID 743297)
# T4 sequence (O95551 whole entry): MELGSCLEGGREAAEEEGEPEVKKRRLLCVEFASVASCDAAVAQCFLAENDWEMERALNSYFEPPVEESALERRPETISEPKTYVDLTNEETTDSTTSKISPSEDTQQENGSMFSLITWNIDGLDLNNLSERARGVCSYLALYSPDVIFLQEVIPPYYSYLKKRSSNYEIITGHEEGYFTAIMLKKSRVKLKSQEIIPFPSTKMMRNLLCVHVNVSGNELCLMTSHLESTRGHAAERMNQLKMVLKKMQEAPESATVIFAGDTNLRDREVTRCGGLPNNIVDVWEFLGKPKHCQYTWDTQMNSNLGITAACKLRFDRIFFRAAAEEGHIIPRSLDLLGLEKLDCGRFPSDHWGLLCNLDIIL
smiles,measurement,setting,value
CCCCn1c(NS(=O)(=O)c2ccccc2)c(S(=O)(=O)c2ccc(C)cc2)c2nc3ccccc3nc21,EC50,[1],3.56 µM (active)
same,EC50,Streptokinase A,18.2 µM (active)
same,EC50,Streptococcus,14.1 µM (active)
same,AC50,[2],> 380 µM (inactive)
same,EC50,Protein RecA,0.0801 µM (inconclusive)
same,AC50,INS1,20.5 µM (active)
same,IC50,[3],> 43.8 µM (inactive)
same,IC50,[4],7.83 µM (active)
